A word on the pIC50: it is −log10 of the IC50, conventionally taken in molar units.

This is an account of results in patent US20140005163A1 (NOVARTIS AG, priority 2010, published 2014).

pIC50: −log10 of the molar value.

Common to all, as to assay type: cell-based
Experiment [1] concerns S6 Ribosomal Protein phosphorylation Ser235/236 in TSC1 null mouse embryo fibroblast (MEF) cells. Nature of the experiment: Reverse protein array assay, S6 Ribosomal Protein phosphorylation Ser235/236 in TSC1 null MEF cells. To be noted: 1 h, pS6 ribosomal protein Ser235/236, 60 minutes incubation, read-out: p-S6 IC50. The method, boiled down: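 TSC1−/− MEFs, seeded and held ≥20 h at 37 °C/5% CO2, were exposed to 8-step serial compound dilutions (0.02% DMSO final; DMSO vehicle control) for 60 min at 37 °C. Cells were then lysed on ice for 10 min and lysates spotted onto reverse protein array chips.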

Experiment [2] has as its system PKB Ser473 phosphorylation in Rat1-myr-HA-p110 beta cells. Nature of the experiment: Reverse protein array assay, PKB Ser473 phosphorylation in Rat1-myr-p110 beta cells. To be noted: 0.5 h, pAkt Ser473, 30 minutes incubation, read-out: p-PKB IC50. The method, boiled down: (§1)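 Rat1 cells expressing myristoylated HA-tagged p110 alpha, beta or delta were plated for at least 20 h, then exposed to 8-step serial compound dilutions (0.2% DMSO final) for 30 min at 37 °C. Lysates were spotted at four dilutions on protein microarrays, and relative fluorescence intensity of phospho-Ser473 PKB was calculated.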

Experiment [3] has as its system PKB Ser473 phosphorylation in Rat1-myr-HA-p110 alpha cells. Nature of the experiment: Reverse protein array assay, PKB Ser473 phosphorylation in Rat1-myr-p110 alpha cells. To be noted: 0.5 h, pAkt Ser473, 30 minutes compound incubation, read-out: p-PKB IC50. The method in brief: as §1
The subject of experiment [4] is PKB Ser473 phosphorylation in Rat1-myr-HA-p110 delta cells. Nature of the experiment: Reverse protein array assay, PKB Ser473 phosphorylation in Rat1-myr-p110 delta cells. To be noted: read-out: p-PKB IC50. The method, boiled down: as §1

Take `CCn1cc(-n2c(=O)n(C)c3cnc4ccc(-c5cncc(N)c5)cc4c32)c(C)n1` [Example 45.2, 8-(5-Amino-pyridin-3-yl)-1-(1-ethyl-3-methyl-1H-pyrazol-4-yl)-3-methyl-1,3-dihydro-imidazo[4,5-c]quinolin-2-one]: the pIC50 is 7.14 in experiment [1], 7.44 in experiment [2], 7.59 in experiment [3] and 6.69 in experiment [4].

In the case of `CCc1ncc(-c2ccc3ncc4c(c3c2)n(-c2cn(C)nc2C)c(=O)n4C)cc1O` [Example 188, 1-(1,3-Dimethyl-1H-pyrazol-4-yl)-8-(6-ethyl-5-hydroxy-pyridin-3-yl)-3-methyl-1,3-dihydro-imidazo[4,5-c]quinolin-2-one], the pIC50 in experiment [1] is 8.09; in experiment [2] it was 7.66; in experiment [3] it was 8.10; in experiment [4], 7.39.

For the compound `CNc1cc(-c2ccc3ncc4c(c3c2)n(-c2cn(C)nc2Cl)c(=O)n4C)cnc1CO` [Example 158.3, 1-(3-Chloro-1-methyl-1H-pyrazol-4-yl)-8-(6-hydroxymethyl-5-methylamino-pyridin-3-yl)-3-methyl-1,3-dihydro-imidazo[4,5-c]quinolin-2-one], the negative-log IC50 (pIC50) in experiment [1] was over 9.30; in experiment [2], over 8.30; in experiment [3], over 8.30; in experiment [4], over 8.30.

For `CCN(C)c1ccc(-c2ccc3ncc4c(c3c2)n(-c2cn(C)nc2C)c(=O)n4C)cn1` [Example 98.1, 1-(1,3-Dimethyl-1H-pyrazol-4-yl)-8-[6-(ethyl-methyl-amino)-pyridin-3-yl]-3-methyl-1,3-dihydro-imidazo[4,5-c]quinolin-2-one], the negative-log IC50 (pIC50) in experiment [1] is 8.52; in experiment [2] it was 7.89; in experiment [3], over 8.30; in experiment [4], 7.38.

In the case of `CCOCc1ncc(-c2ccc3ncc4c(c3c2)n(-c2cn(C)nc2C)c(=O)n4C)cc1OC` [Example 196.2, 1-(1,3-Dimethyl-1H-pyrazol-4-yl)-8-(6-ethoxymethyl-5-methoxy-pyridin-3-yl)-3-methyl-1,3-dihydro-imidazo[4,5-c]quinolin-2-one], the pIC50 was 6.90 in experiment [1], 6.97 in experiment [2], 6.89 in experiment [3] and 6.47 in experiment [4].

Regarding `Cn1cc(-n2c(=O)n(C)c3cnc4ccc(-c5cncc(C(C)(C)C#N)c5)cc4c32)c(Cl)n1` [Example 220.3, 2-{5-[1-(3-Chloro-1-methyl-1H-pyrazol-4-yl)-3-methyl-2-oxo-2,3-dihydro-1H-imidazo[4,5-c]quinolin-8-yl]-pyridin-3-yl}-2-methyl-propionitrile], the pIC50 in experiment [1] was over 9.30; in experiment [2], 8.22; in experiment [3], 8.22; in experiment [4], 7.89.

As to `CNc1cc(-c2ccc3ncc4c(c3c2)n(-c2cn(C(C)C)nc2C)c(=O)n4C)cnc1CO` [Example 158.2, 8-(6-Hydroxymethyl-5-methylamino-pyridin-3-yl)-1-(1-isopropyl-3-methyl-1H-pyrazol-4-yl)-3-methyl-1,3-dihydro-imidazo[4,5-c]quinolin-2-one], the pIC50 was 9.00 in experiment [1], 8.22 in experiment [2], 8.15 in experiment [3] and 7.82 in experiment [4].

Take `Cc1nn(C)cc1-n1c(=O)n(C)c2cnc3ccc(-c4cncc(N5CCC5)c4)cc3c21` [Example 179, 8-(5-Azetidin-1-yl-pyridin-3-yl)-1-(1,3-dimethyl-1H-pyrazol-4-yl)-3-methyl-1,3-dihydro-imidazo[4,5-c]quinolin-2-one]: the negative logarithm of the IC50 (pIC50) in experiment [1] is 8.00; in experiment [2] it was 7.68; in experiment [3] it was 7.74; in experiment [4], 7.60.

`COCc1ccc(-c2ccc3ncc4c(c3c2)n(-c2cn(C)nc2Cl)c(=O)n4C)cn1` [Example 203, 1-(3-Chloro-1-methyl-1H-pyrazol-4-yl)-8-(6-methoxymethyl-pyridin-3-yl)-3-methyl-1,3-dihydro-imidazo[4,5-c]quinolin-2-one]: the pIC50 in experiment [1] is 7.66; in experiment [2] it was 7.89; in experiment [3] it was 8.00; in experiment [4], 7.59.

Turning to `Cc1nn(C)cc1-n1c(=O)n(C)c2cnc3ccc(-c4cncc(N(C)C)c4)cc3c21` [Example 178, 8-(5-Dimethylamino-pyridin-3-yl)-1-(1,3-dimethyl-1H-pyrazol-4-yl)-3-methyl-1,3-dihydro-imidazo[4,5-c]quinolin-2-one], the negative-log IC50 (pIC50) was 8.70 in experiment [1], 7.31 in experiment [2], 7.70 in experiment [3] and 7.07 in experiment [4].

For the compound `CCN1C(=O)OCc2ncc(-c3ccc4ncc5c(c4c3)n(-c3cn(C)nc3C)c(=O)n5C)cc21` [Example 237, 1-(1,3-Dimethyl-1H-pyrazol-4-yl)-8-(1-ethyl-2-oxo-1,4-dihydro-2H-pyrido[3,2-d][1,3]oxazin-7-yl)-3-methyl-1,3-dihydro-imidazo[4,5-c]quinolin-2-one], the negative-log IC50 (pIC50) in experiment [1] was 8.22; in experiment [2], 7.26; in experiment [3], 7.74; in experiment [4], 7.31.

Take `CCn1c(=O)n(-c2cn(C)nc2C)c2c3cc(-c4cncc(N)c4)ccc3ncc21` [Example 245, 8-(5-Amino-pyridin-3-yl)-1-(1,3-dimethyl-1H-pyrazol-4-yl)-3-ethyl-1,3-dihydro-imidazo[4,5-c]quinolin-2-one]: the pIC50 is 7.37 in experiment [1], 6.41 in experiment [2], 6.14 in experiment [3] and 6.14 in experiment [4].

For the compound `CCOc1ccc(-c2ccc3ncc4c(c3c2)n(-c2cn(CC(=O)N(C)C)nc2C)c(=O)n4C)cn1` [Example 3.9, 2-{4-[8-(6-Ethoxy-pyridin-3-yl)-3-methyl-2-oxo-2,3-dihydro-imidazo[4,5-c]quinolin-1-yl]-3-methyl-pyrazol-1-yl}-N,N-dimethyl-acetamide], the pIC50 in experiment [1] is 8.30; in experiment [2], 7.72; in experiment [3] it was 8.00; in experiment [4], 7.30.

Consider `CNc1cncc(-c2ccc3ncc4c(c3c2)n(-c2cn(C(C)C)nc2C)c(=O)n4C)c1` [Example 180.2, 1-(1-Isopropyl-3-methyl-1H-pyrazol-4-yl)-3-methyl-8-(5-methylamino-pyridin-3-yl)-1,3-dihydro-imidazo[4,5-c]quinolin-2-one], for which the pIC50 in experiment [1] was 7.77; in experiment [2], 7.49; in experiment [3], over 8.30; in experiment [4] it was 7.62.

Consider `CCNc1ncc(-c2ccc3ncc4c(c3c2)n(-c2c(C)nn(C)c2C)c(=O)n4C)cc1COC` [Example 206.2, 8-(6-Ethylamino-5-methoxymethyl-pyridin-3-yl)-3-methyl-1-(1,3,5-trimethyl-1H-pyrazol-4-yl)-1,3-dihydro-imidazo[4,5-c]quinolin-2-one], for which the negative logarithm of the IC50 (pIC50) in experiment [1] is 7.11; in experiment [2], 6.02; in experiment [3] it was 6.90; in experiment [4], 6.32.

Turning to `CCNc1ncc(-c2ccc3ncc4c(c3c2)n(-c2cn(C)nc2C)c(=O)n4C)cc1COC` [Example 206.1, 1-(1,3-Dimethyl-1H-pyrazol-4-yl)-8-(6-ethylamino-5-methoxymethyl-pyridin-3-yl)-3-methyl-1,3-dihydro-imidazo[4,5-c]quinolin-2-one], the negative logarithm of the IC50 (pIC50) in experiment [1] was 8.52; in experiment [2] it was 6.65; in experiment [3], 7.96; in experiment [4] it was 7.35.
